# Patent US8012971B2, “Therapeutic agent for chronic obstructive pulmonary disease” (Dainippon Sumitomo Pharma Co., Ltd., priority 2005, dated 2011)
# Experiments:
# Assay type in all cases: in vivo
# [1] = system: Guinea Pig Chronic Obstructive Pulmonary Disease (COPD) Model; experiment: Airway resistance (sRaw) in guinea pig COPD model (cigarette smoke exposure); settings: 10 mg/kg/day oral; 1 week of cigarette smoke exposure; mean ± SEM of 8 animals
# Protocol: (§1) An evaluation was carried out as follows according to a report of Kosuke MORIZUMI, Junichi FUCHIGAMI et al., 2002, The 75th Annual Meeting of the Japanese Pharmacological Society (2002) Abstract No. P-259, “Study of a chronic obstructive pulmonary disease-Effects of theophylline on respiratory function and lung function of guinea pigs in an exposure of cigarette smoke.”
# (§2) Male Hartley strain guinea pigs (purchased from Japan SLC, Inc.) were taken in a cigarette exposure holder (RMH-TUBES, manufactured by Muenster Ltd.) to secure them to an exposure chamber (Flow-past type nose-only inhalation chamber, manufactured by Muenster Ltd.), and allowed to inhale cigarette smoke (Hi-Lite, manufactured by Japan Tobacco Inc.) for 60 minutes per day for 5 days in a week, totally 4 weeks using a smoking exposure equipment (Hamburg II, manufactured by Borgwaldt Technik), while the exposure was carried out for 4 days in the 4th week. • (2) Drug Administrations
# (§3) Each 0.5% MC suspension of a test drug was orally administered daily in 5 ml/weight (kg) once a day for 25 days from the first day of the exposure. To a sham-exposure group and a control group was orally administered a 0.5% MC suspension in a similar manner. Any oral administrations were carried out 0.5 to 1 hours before exposures on a cigarette-smoke-exposure day or after measurements when measuring respiratory functions. A drug was not administered on the day for measurement of respiratory functions after finishing the 4th week of the exposure. • (3) Measurements of Airway Resistance
# Specific airway resistances (sRaw) in guinea pigs were measured during awakening by double-flow plethysmography using general respiratory function analysis system (PULMOS-I, manufactured by M•I•P•S Corp.). Measurements were carried out before the exposure and on the day after finishing the 1st, 2nd, 3rd and 4th weeks of the exposure. Each 100 breathings of respiratory functions were individually measured, and the average values were obtained as measured values. A rate of change of airway resistances was calculated by the following equation. Rate of change of each measured week (%)=100×(a measured value on each measured date−a measured value before starting exposures of cigarette smoke)/a measured value before starting exposures of cigarette smoke
# [2] = system: Guinea Pig Chronic Obstructive Pulmonary Disease (COPD) Model; experiment: Lung functions (FRC, RV) in guinea pig COPD model; settings: 10 mg/kg/day oral; after 4th week of exposure; mean ± SEM of 8 animals
# Protocol: as §1, §2, §3
# After measuring airway resistances in the 4th week, animals were cut open their tracheas under urethane-anesthetizing ([…], i.p.), cannulated on the side of lung, fixed by ligation, and measured residual volumes (RV) and functional residual capacities (FRC) by lung functions measuring system (Biosystem for maneuver, manufactured by Buxco Electronics).
# [3] = system: Guinea Pig Chronic Obstructive Pulmonary Disease (COPD) Model; experiment: Histological investigations of lung in guinea pig COPD model; settings: 10 mg/kg/day for 25 days; 8 animals
# Protocol: as §1, §2, §3
# After collection of BALF, trachea and lung were isolated. The ligation site of the left lung was opened, injected neutral formalin buffer into trachea, bronchi and lung at the pressure of 20 cm H2O via cannula fixed on the side of the lung, and the lung tissue was extended to be fixed. According to a conventional method, tissue section samples were produced using posterior lobe of the left lung and hematoxylin-eosin (HE) stain was carried out. Any other lung tissues were stored in neutral formalin buffers. Drug efficacies of the produced tissue samples were evaluated by scoring tissue changes under the microscope. The criteria of scores were shown as follows: −: none, ±: minimal, +: mild, ++: moderate, +++: severe. Each quantification was calculated as 0, 1, 2, 3, 4.
# [4] = system: Guinea Pig Chronic Obstructive Pulmonary Disease (COPD) Model; experiment: Inflammatory cells in bronchoalveolar fluid in guinea pig COPD model; settings: 10 mg/kg/day oral; mean ± SEM of 8 animals
# Protocol: as §1, §2, §3
# After measuring lung functions, animals were exsanguinated to death and opened the thorax, ligated the left bronchial bifurcation, and then injected saline (2.5 mL) into the right lung and aspirated the same via fixed cannula on measuring lung functions repeatedly in twice (totally 5 mL), and the recovery solution was obtained as a bronchoalveolar lavage fluid (BALF). BALF was centrifuged (230×g, 4° C., for 10 minutes) to give cell pellets. The pellets were suspended in saline (0.5 mL), and to a part of the suspension was added Turk solution (manufactured by Wako Pure Chemical Industries, Ltd.) so as to dilute 10 to 20 folds. Leukocyte numbers per 0.1 μL were measured by a blood cell counting chamber and leukocyte numbers per 1 μL were calculated. Cell suspensions were prepared again, smears were prepared using about 2000 to 3000 total cell numbers, May-Grunwald-Giemsa stain was carried out, leukocyte numbers were counted under the microscope, a ratio of each leukocyte number to total leukocyte number was obtained, and each cell number per 1 μL was calculated based on the ratio. Results are shown in each cell number per 1 μL.
smiles,measurement,setting,value
"Cn1c(=O)c2[nH]cnc2n(C)c1=O [theophylline, Theophylline, reference compound]",Specific airway resistance (sRaw) % increase from pre value,[1],15.02 ± 6.73%
same,Functional residual capacity (FRC),[2],6.916 ± 0.234 mL
same,Residual volume (RV),[2],1.962 ± 0.417 mL
same,"Number of animals with grade + (mild): A. Hyperplasia, epithelial cell, bronchus",[3],0
same,"Number of animals with grade + (mild): B. Cellular exudation, neutrophil/eosinophil, lumen, bronchiole",[3],0
same,"Number of animals with grade + (mild): C. Thickening, alveolar wall",[3],1
same,"Number of animals with grade + (mild): D. Accumulation, foamy/macrophage-like cell, alveolus",[3],1
same,"Number of animals with grade + (mild): E. Cellular infiltration, neutrophil, alveolus",[3],0
same,"Number of animals with grade ++ (moderate): A. Hyperplasia, epithelial cell, bronchus",[3],0
same,"Number of animals with grade ++ (moderate): B. Cellular exudation, neutrophil/eosinophil, lumen, bronchiole",[3],0
same,"Number of animals with grade ++ (moderate): C. Thickening, alveolar wall",[3],0
same,"Number of animals with grade ++ (moderate): D. Accumulation, foamy/macrophage-like cell, alveolus",[3],0
same,"Number of animals with grade ++ (moderate): E. Cellular infiltration, neutrophil, alveolus",[3],0
same,"Number of animals with grade +++ (severe): A. Hyperplasia, epithelial cell, bronchus",[3],0
same,"Number of animals with grade +++ (severe): B. Cellular exudation, neutrophil/eosinophil, lumen, bronchiole",[3],0
same,"Number of animals with grade +++ (severe): C. Thickening, alveolar wall",[3],0
same,"Number of animals with grade +++ (severe): D. Accumulation, foamy/macrophage-like cell, alveolus",[3],0
same,"Number of animals with grade +++ (severe): E. Cellular infiltration, neutrophil, alveolus",[3],0
same,"Number of animals with grade ± (minimal): A. Hyperplasia, epithelial cell, bronchus",[3],1
same,"Number of animals with grade ± (minimal): B. Cellular exudation, neutrophil/eosinophil, lumen, bronchiole",[3],0
same,"Number of animals with grade ± (minimal): C. Thickening, alveolar wall",[3],0
same,"Number of animals with grade ± (minimal): D. Accumulation, foamy/macrophage-like cell, alveolus",[3],1
same,"Number of animals with grade ± (minimal): E. Cellular infiltration, neutrophil, alveolus",[3],1
same,"Number of animals with grade − (none): A. Hyperplasia, epithelial cell, bronchus",[3],7
same,"Number of animals with grade − (none): B. Cellular exudation, neutrophil/eosinophil, lumen, bronchiole",[3],8
same,"Number of animals with grade − (none): C. Thickening, alveolar wall",[3],7
same,"Number of animals with grade − (none): D. Accumulation, foamy/macrophage-like cell, alveolus",[3],6
same,"Number of animals with grade − (none): E. Cellular infiltration, neutrophil, alveolus",[3],7
same,"Cell number in BALF, Macrophage",[4],2068 ± 362 cells/μL
same,"Cell number in BALF, Neutrophil",[4],1072 ± 322 ^NS cells/μL
same,"Cell number in BALF, Total",[4],3578 ± 583 cells/μL
